This assay has as its target T1, Human lysozyme (HL) (Homo sapiens, UniProt P61626).
T1 construct: gene LYZ; commercial human lysozyme (Sigma-Aldrich), dialysed; single polypeptide, no subunits; 1REX used for docking only
T1 sequence (P61626 19-148): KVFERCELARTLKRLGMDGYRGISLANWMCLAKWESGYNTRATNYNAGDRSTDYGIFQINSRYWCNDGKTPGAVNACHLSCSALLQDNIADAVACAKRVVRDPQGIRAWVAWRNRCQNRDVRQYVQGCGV
Put plainly: intrinsic fluorescence quenching, modified Stern-Volmer. Particulars: 20 mM sodium phosphate pH 7.4, 310 K, 5 uM HL, excitation 280 nm; n = 1.00; double-log. In kind it is binding. An excerpt:
intrinsic fluorescence quenching, modified Stern-Volmer on Human lysozyme (HL)

The molecule `CC(C)(C#N)c1cc(Cn2cncn2)cc(C(C)(C)C#N)c1` [anastrozole] displayed a Kb of 9660 M⁻¹.
